Results on 26 compounds are retold here after patent publication US20090062294A1, “HETEROARYL-SUBSTITUTED UREA MODULATORS OF FATTY ACID AMIDE HYDROLASE” (priority 2007, published 2009).

pIC50: −log10 of the molar value. Where a name gives a salt, the structure may show the parent alone. Some results are limits rather than exact numbers.

As a reminder, the pIC50 is the negative decadic logarithm of the IC50, by convention in mol/L. A lower pIC50 goes with a large IC50.

One assay concerns the target T1, FAAH (Homo sapiens, UniProt O00519).
T1 sequence (O00519 1-579): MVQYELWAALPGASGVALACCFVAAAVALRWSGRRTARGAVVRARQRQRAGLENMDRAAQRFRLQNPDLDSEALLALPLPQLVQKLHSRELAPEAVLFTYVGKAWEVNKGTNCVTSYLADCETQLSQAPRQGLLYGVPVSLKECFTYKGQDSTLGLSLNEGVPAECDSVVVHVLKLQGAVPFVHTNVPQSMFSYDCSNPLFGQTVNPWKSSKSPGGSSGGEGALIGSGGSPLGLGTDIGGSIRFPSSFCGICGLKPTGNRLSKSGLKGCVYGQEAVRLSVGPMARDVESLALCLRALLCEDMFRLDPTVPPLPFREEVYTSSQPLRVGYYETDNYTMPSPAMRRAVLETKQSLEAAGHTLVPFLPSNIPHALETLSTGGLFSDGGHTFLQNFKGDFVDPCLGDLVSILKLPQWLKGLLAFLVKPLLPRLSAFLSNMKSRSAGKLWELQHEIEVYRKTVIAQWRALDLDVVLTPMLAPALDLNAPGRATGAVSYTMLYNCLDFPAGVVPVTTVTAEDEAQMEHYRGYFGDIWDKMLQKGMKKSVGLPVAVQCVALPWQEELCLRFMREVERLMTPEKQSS
Nature of the assay: Assay Method 1: FAAH assay, 3H-anandamide hydrolysis in homogenate of T84 cells or SK-N-MC cells transfected with human FAAH. Type of assay: biochemical. To be noted: average of results, > = solubility limit or highest concentration tested. In a few lines: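 Homogenates of T84 cells or of SK-N-MC cells stably transfected with human FAAH (G418-selected) were prepared in pH 9 Tris/EDTA/glycerol/Triton buffer. They were incubated with compound and 80 nM final ^3H-anandamide for 1 h at rt. Released ^3H-ethanolamine was separated on activated charcoal and counted by scintillation.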

In another assay the target is T2, rat FAAH (Rattus norvegicus, UniProt P97612).
T2 sequence (P97612 1-579): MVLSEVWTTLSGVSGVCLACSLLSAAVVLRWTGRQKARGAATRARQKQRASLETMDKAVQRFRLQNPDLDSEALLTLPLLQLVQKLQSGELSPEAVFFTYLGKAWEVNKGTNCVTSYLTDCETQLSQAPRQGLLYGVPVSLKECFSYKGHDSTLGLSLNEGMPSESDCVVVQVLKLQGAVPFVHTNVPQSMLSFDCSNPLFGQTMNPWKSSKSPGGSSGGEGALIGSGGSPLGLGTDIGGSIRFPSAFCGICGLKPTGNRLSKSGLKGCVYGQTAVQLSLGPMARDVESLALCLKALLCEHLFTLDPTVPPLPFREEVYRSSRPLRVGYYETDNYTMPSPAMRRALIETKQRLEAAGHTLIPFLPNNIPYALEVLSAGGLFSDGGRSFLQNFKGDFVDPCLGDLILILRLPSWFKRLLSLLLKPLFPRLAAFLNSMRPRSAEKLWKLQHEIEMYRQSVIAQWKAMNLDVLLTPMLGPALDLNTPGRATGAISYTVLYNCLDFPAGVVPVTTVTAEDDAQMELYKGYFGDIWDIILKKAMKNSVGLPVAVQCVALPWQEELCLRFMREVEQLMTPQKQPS
Nature of the assay: Assay Method 2: FAAH assay, 3H-anandamide hydrolysis in homogenate of SK-N-MC cells transfected with rat FAAH. The class given is biochemical. To be noted: average of results, > = solubility limit or highest concentration tested. The gist of the method: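 Homogenate of SK-N-MC cells stably transfected with rat FAAH cDNA (G418-selected clones) in pH 9 Tris/EDTA/glycerol/Triton buffer. Incubated with compound and 80 nM final [3H]-anandamide for 1 h at rt. Released [3H]-ethanolamine separated from substrate on activated charcoal filters and counted by scintillation.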

Consider `O=C(Nc1cnccn1)N1CCN(Cc2cccc(Oc3ccc4c(c3)OC(F)(F)O4)c2)CC1` [Example 237, 4-{3-[(2,2-Difluoro-1,3-benzodioxol-5-yl)oxy]benzyl}-N-pyrazin-2-ylpiperazine-1-carboxamide], for which the negative logarithm of the IC50 (pIC50) against FAAH is 8.30; against rat FAAH, 7.52.
For `O=C(Nc1noc2ccccc12)N1CCN(Cc2ccc(OCc3ccccc3)cc2)CC1` [Example 112, N-1,2-Benzisoxazol-3-yl-4-[4-(benzyloxy)benzyl]piperazine-1-carboxamide], the results for the negative logarithm of the IC50 (pIC50) against FAAH and on rat FAAH were 7.40 and 6.57, respectively.
The like results for `O=C(Nc1nnn[nH]1)N1CCN(Cc2ccc3ccccc3c2)CC1` [Example 176, 4-(Naphthalen-2-ylmethyl)-N-1H-tetrazol-5-ylpiperazine-1-carboxamide] were, in that order, 5.70 and 6.35.
Regarding `O=C(Nc1noc2ccccc12)N1CCN(Cc2cccc(Oc3ccc(OCC(F)(F)F)cc3)c2)CC1` [Example 35, 4-{3-[4-(2,2,2-Trifluoro-ethoxy)-phenoxy]-benzyl}-piperazine-1-carboxylic acid benzo[d]isoxazol-3-ylamide], the pIC50 at FAAH is 8.30; at rat FAAH it was 7.70.
The matching figures for `COC(=O)Cc1ccccc1C#Cc1cccc(CN2CCN(C(=O)Nc3noc4ccccc34)CC2)c1` [Example 93, Methyl {2-[(3-{[4-(1,2-benzisoxazol-3-ylcarbamoyl)piperazin-1-yl]methyl}phenyl)ethynyl]phenyl}acetate]: 6.99 and 6.65.
In the case of `O=C(Nc1cnccn1)N1CCN(Cc2cccc(Oc3cccc(Cl)c3)c2)CC1` [Example 225, 4-[3-(3-Chlorophenoxy)benzyl]-N-pyrazin-2-ylpiperazine-1-carboxamide], the negative-log IC50 (pIC50) against FAAH is 7.37; against rat FAAH, 6.27.
The matching figures for `O=C(Nc1ccon1)N1CCN(Cc2cccc(Oc3ccc(OC(F)(F)F)cc3)c2)CC1` [Example 134, N-Isoxazol-3-yl-4-{3-[4-(trifluoromethoxy)phenoxy]benzyl}piperazine-1-carboxamide]: 8.00 and 7.00.
On to `N#Cc1ccc(Oc2cccc(CN3CCN(C(=O)Nc4nn[nH]n4)CC3)c2)cc1` [Example 187, 4-[3-(4-Cyanophenoxy)benzyl]-N-2H-tetrazol-5-ylpiperazine-1-carboxamide], for which the pIC50 is 5.80 against FAAH and 6.00 against rat FAAH.
Take `O=C(Nc1cnccn1)N1CCN(Cc2cccc(Oc3ccc4ncccc4c3)c2)CC1` [Example 232, N-Pyrazin-2-yl-4-[3-(quinolin-6-yloxy)benzyl]piperazine-1-carboxamide]: the pIC50 was 7.40 against FAAH and 6.62 at rat FAAH.
The like results for `O=C(Nc1noc2ccccc12)N1CCN(Cc2cccc(Oc3ccc4ccccc4c3)c2)CC1` [Example 119, N-1,2-Benzisoxazol-3-yl-4-[3-(naphthalen-2-yloxy)benzyl]piperazine-1-carboxamide] were, in that order, 7.35 and 8.05.
Consider `N#Cc1ccc(Oc2cccc(CN3CCN(C(=O)Nc4cnccn4)CC3)c2)cc1` [Example 229, 4-[3-(4-Cyano-phenoxy)-benzyl]-piperazine-1-carboxylic acid pyrazin-2-ylamide], for which the results for the pIC50 at FAAH and against rat FAAH were 6.70 and 5.52, respectively.
For the compound `O=C(Nc1nnn[nH]1)N1CCN(Cc2cccc(Oc3cccc(OC(F)(F)F)c3)c2)CC1` [Example 173, N-1H-Tetrazol-5-yl-4-{3-[3-(trifluoromethoxy)phenoxy]benzyl}piperazine-1-carboxamide], the negative logarithm of the IC50 (pIC50) is 6.65 against FAAH and 6.70 on rat FAAH.
The matching figures for `O=C(Nc1cnccn1)N1CCN(Cc2cc3ccccc3s2)CC1` [Example 218, 4-(1-Benzothiophen-2-ylmethyl)-N-pyrazin-2-ylpiperazine-1-carboxamide]: 6.77 and 6.15.
The like results for `O=C(Nc1noc2ccccc12)N1CCN(Cc2cccc(C#Cc3cccc4ccccc34)c2)CC1` [Example 86, N-1,2-Benzisoxazol-3-yl-4-[3-(naphthalen-1-ylethynyl)benzyl]piperazine-1-carboxamide] were, in that order, 5.52 and 6.24.
With `O=C(Nc1ccc(Cl)nn1)N1CCN(Cc2cccc(Oc3ccc(Cl)cc3)c2)CC1` [Example 42, 4-[3-(4-Chloro-phenoxy)-benzyl]-piperazine-1-carboxylic acid (6-chloro-pyridazin-3-yl)-amide trifluoroacetic acid salt], the negative logarithm of the IC50 (pIC50) is 6.51 at FAAH and 7.74 against rat FAAH.
The matching figures for `O=C(Nc1noc2ccccc12)N1CCN(Cc2cccc(Oc3cccc(Br)c3)c2)CC1` [Example 31, 4-[3-(3-Bromo-phenoxy)-benzyl]-piperazine-1-carboxylic acid benzo[d]isoxazol-3-ylamide trifluoroacetic acid salt]: 7.66 and 7.77.
The matching figures for `O=C(Nc1ccon1)N1CCN(Cc2ccc(Br)cc2)CC1` [Example 148, 4-(4-Bromo-benzyl)-piperazine-1-carboxylic acid isoxazol-3-ylamide]: 5.30 and less than 5.00.
The matching figures for `O=C(Nc1nnn[nH]1)N1CCN(Cc2cccc(Oc3ccc(SC(F)(F)F)cc3)c2)CC1` [Example 172, N-1H-Tetrazol-5-yl-4-(3-{4-[(trifluoromethyl)sulfanyl]phenoxy}benzyl)-piperazine-1-carboxamide]: 7.30 and 8.00.
With `O=C(Nc1cnccn1)N1CCN(Cc2cccc(Oc3ccc(Cl)c(Cl)c3)c2)CC1` [Example 59, 4-[3-(3,4-Dichloro-phenoxy)-benzyl]-piperazine-1-carboxylic acid pyrazin-2-ylamide trifluoroacetic acid salt], the results for the negative-log IC50 (pIC50) at FAAH and against rat FAAH were 6.57 and 7.66, respectively.
The matching figures for `O=C(Nc1cccc2nsnc12)N1CCN(Cc2cccc(Oc3cc(Cl)cc(Cl)c3)c2)CC1` [Example 39, 4-[3-(3,5-Dichloro-phenoxy)-benzyl]-piperazine-1-carboxylic acid benzo[1,2,5]thiadiazol-4-ylamide trifluoroacetic acid salt]: 6.51 and 6.24.
The matching figures for `O=C(Nc1cccnn1)N1CCN(Cc2ccc3[nH]ccc3c2)CC1` [Example 201, 4-(1H-Indol-5-ylmethyl)-N-pyridazin-3-ylpiperazine-1-carboxamide]: less than 5.00 and less than 5.00.
Turning to `O=C(Nc1noc2ccccc12)N1CCN(Cc2ccc(Cl)c(Cl)c2)CC1` [Example 111, N-1,2-Benzisoxazol-3-yl-4-(3,4-dichlorobenzyl)piperazine-1-carboxamide], the figures for the negative-log IC50 (pIC50) against FAAH and at rat FAAH were 7.46 and 7.40, respectively.
The matching figures for `O=C(Nc1ccon1)N1CCN(Cc2cccc(Oc3cccc(Cl)c3)c2)CC1` [Example 136, 4-[3-(3-Chlorophenoxy)benzyl]-N-isoxazol-3-ylpiperazine-1-carboxamide]: 7.26 and 6.00.
Take `O=C(Nc1noc2ccccc12)N1CCC(Cc2ccc(F)cc2)CC1` [Example 22, 4-(4-Fluoro-benzyl)-piperidine-1-carboxylic acid benzo[d]isoxazol-3-ylamide]: the figures for the pIC50 against FAAH and on rat FAAH were 6.97 and 7.11, respectively.
As to `O=C(Nc1noc2ccccc12)N1CCN(Cc2cccc(C#Cc3ccsc3)c2)CC1` [Example 77, N-1,2-Benzisoxazol-3-yl-4-[3-(thiophen-3-ylethynyl)benzyl]-piperazine-1-carboxamide], the figures for the negative-log IC50 (pIC50) against FAAH and against rat FAAH were 7.92 and 7.19, respectively.
The matching figures for `O=C(Nc1noc2ccccc12)N1CCN(Cc2ccc3ccccc3n2)CC1` [Example 124, 4-Quinolin-2-ylmethyl-piperazine-1-carboxylic acid benzo[d]isoxazol-3-ylamide]: 7.26 and 6.70.
